{"source": "patent US9017692B2", "about": "“Antimicrobial agent, bacterial strain, biosynthesis, and methods of use” (priority 2011, dated 2015)", "key": {"PAE.44": {"system": "PAE.44", "assay": "MIC, CLSI broth microdilution, Gram-negative clinical isolates", "type": "cell-based, Pseudomonas aeruginosa", "description": "(§1) Plates were incubated at 35° C. for 24 h.\n(§2) The activity of paenibacterin was also tested against clinical isolates of the following Gram-negative bacterial strains: four strains of the species Pseudomonas aeruginosa (PAE), three strains of the species Acinetobacter baumannii (ABA), two strains of the species Escherichia coli (ECO), and four strains of the species Klebsiella pneumoniae (KPN). Particularly, the strains of Gram-negative bacteria included polymyxin B-resistant (PMB-R) and polymyxin B-sensitive (PMB-S) strains of each above listed species. The MICs were determined using the above described CLSI broth microdilution method, in which the method was performed with both non-binding surface coated (NBS) and polystyrene (PS) 96-well plates (Tables 11 and 12, respectively). The MICs were generally lower in the NBS 96-well plates as compared to the PS 96-well plates."}, "PAE.2325": {"system": "PAE.2325", "assay": "MIC, CLSI broth microdilution, Gram-negative clinical isolates", "type": "cell-based, Pseudomonas aeruginosa", "description": "as §1, §2"}, "PAE.2281": {"system": "PAE.2281", "assay": "MIC, CLSI broth microdilution, Gram-negative clinical isolates", "type": "cell-based, Pseudomonas aeruginosa", "description": "as §1, §2"}, "PAE.999": {"system": "PAE.999", "assay": "MIC, CLSI broth microdilution, Gram-negative clinical isolates", "type": "cell-based, Pseudomonas aeruginosa", "description": "as §1, §2"}, "KPN.674": {"system": "KPN.674", "assay": "MIC, CLSI broth microdilution, Gram-negative clinical isolates", "type": "cell-based, Klebsiella pneumoniae", "description": "as §1, §2"}, "PMB-S, KPN.2461": {"system": "PMB-S, KPN.2461", "assay": "MIC, CLSI broth microdilution, Gram-negative clinical isolates", "type": "cell-based, Klebsiella pneumoniae", "description": "as §1, §2"}, "KPN.2317": {"system": "KPN.2317", "assay": "MIC, CLSI broth microdilution, Gram-negative clinical isolates", "type": "cell-based, Klebsiella pneumoniae", "description": "as §1, §2"}, "PMB-R, KPN.2463": {"system": "PMB-R, KPN.2463", "assay": "MIC, CLSI broth microdilution, Gram-negative clinical isolates", "type": "cell-based, Klebsiella pneumoniae", "description": "as §1, §2"}, "[1]": {"system": "E. coli O157:H7 ATCC 43889", "assay": "Spot-on-lawn antimicrobial activity", "type": "cell-based, Escherichia coli", "details": "broth medium LB", "description": "(§3) Spot-on-lawn method [He, Z., et al., Appl. Environ. Microbiol., (2007) 73:168-178] was used for the bioassay of antimicrobial activity. Bacterial indicators were incubated at 37° C. for 24 h, except Pseudomonas putida, Clostridium difficile and methycillin resistant Staphylococcus aureus which were incubated for 48 h (Table 1). The indicator overlay was prepared by pouring 10 ml soft agar (seeded with 10 μL indicator culture) onto tryptose agar as basal medium in a petri dish. Purified antimicrobials were two-fold serially diluted and aliquots (10 μL each) were spotted onto the soft agar. The plates were incubated overnight and inspected for the presence of growth inhibition zones. Antimicrobial activity was expressed in arbitrary units (AU)/mL; this value is the reciprocal of the highest dilution displaying a zone of inhibition corresponding to 1 mL of the non-diluted antimicrobial preparation.\n(§4) Purified paenibacterin was used for the antimicrobial spectrum test. Microorganisms tested for sensitivity to this compound included pathogenic (e.g., Salmonella Typhimurium, Escherichia coli O157:H7, Listeria monocytogenes, and Staphylococcus aureus) and non-pathogenic (e.g., Escherichia coli K-12, Pseudomonas putida, and Enterococcus faecalis) bacteria (Table 1)."}, "E. coli O157:H7 EDL 933": {"system": "E. coli O157:H7 EDL 933", "assay": "Spot-on-lawn antimicrobial activity", "type": "cell-based, Escherichia coli", "details": "broth medium LB", "description": "as §3, §4"}, "[2]": {"system": "L. monocytogenes OSY-8578", "assay": "Spot-on-lawn antimicrobial activity", "type": "cell-based, Listeria monocytogenes", "details": "TSBYE", "description": "as §3, §4"}, "MSSA ATCC 29213 SAU.42": {"system": "MSSA ATCC 29213 SAU.42", "assay": "microbe, parasite or virus in culture", "details": "SAU.42, MSSA ATCC 29213; NBS 96-well plates", "description": "(§5) The activity of paenibacterin against several strains of Gram-positive and Gram-negative foodborne pathogens is summarized in Table 10. The data is reported as minimum inhibitory concentrations (MIC) as an average of three replicates for paenibacterin against the various listed bacterial strains. […] MICs were determined according to the CLSI broth microdilution method (see, Clinical and Laboratory Standards Institute (CLSI). 2009. Methods for dilution antimicrobial susceptibility tests for bacteria that grow aerobically; approved standard. […]. CLSI, Wayne, Pa.). Briefly, HPLC-purified paenibacterin was dissolved in methanol and diluted to appropriate concentration with cation-adjusted Mueller-Hinton II broth (Difco). Aliquots (25 μl) of serially-diluted paenibacterin was dispensed into wells of a 96-well plate; an equal amount of 1/10 diluted overnight bacterial culture was added to wells. Plates were incubated at 35° C. for 24 h. Cell growth after incubation was examined and determined using a microtiter plate reader at 600 nm. Concentration of paenibacterin is determined based on a molecular weight of 1604 Da.\n(§6) The activity of paenibacterin was further tested against clinical isolates of the following Gram-positive bacteria: methicillin-sensitive Staphylococcus aureus (MSSA), methicillin-resistant S. aureus (MRSA), vancomycin-sensitive Enterococcus faecalis, vancomycin-resistant E. faecalis (VRE), Streptococcus pneumoniae, and laboratory derived daptomycin-resistant (DR) MSSA, MRSA, and VRE strains. The MICs were determined using the above described CLSI broth microdilution method, in which the method was performed with non-binding surface coated (NBS) 96-well plates."}, "MRSA ATCC 43300 SAU.399": {"system": "MRSA ATCC 43300 SAU.399", "assay": "microbe, parasite or virus in culture", "details": "SAU.399, MRSA ATCC 43300; NBS 96-well plates", "description": "as §5, §6"}, "[3]": {"system": "polymixin B-sensitive strains of Pseudomonas aeruginosa", "assay": "MIC, Table 11", "type": "cell-based", "details": "NBS plates", "description": "as §1, §2"}, "[4]": {"system": "polymixin B-sensitive strains of Klebsiella pneumoniae", "assay": "MIC, Table 11", "type": "cell-based", "details": "NBS plates", "description": "as §1, §2"}, "[5]": {"system": "polymyxin B-resistant and polymyxin B-sensitive strains of Acinetobacter baumannii", "assay": "MIC, Table 11", "type": "cell-based", "details": "Table 11 (NBS plates)", "description": "as §1, §2"}, "[6]": {"system": "polymixin B-sensitive strains of Escherichia coli", "assay": "MIC, Table 11", "type": "cell-based", "details": "NBS plates", "description": "as §1, §2"}}}
{"substance": "paenibacterin", "values": [{"measurement": "Minimum inhibitory concentration (MIC)", "setting": "PAE.44; non-binding surface coated (NBS) 96-well plates", "result": 8, "unit": "µg/mL"}, {"measurement": "Minimum inhibitory concentration (MIC)", "setting": "PAE.44; polystyrene (PS) 96-well plates", "result": 64, "unit": "µg/mL"}, {"measurement": "Minimum inhibitory concentration (MIC)", "setting": "PAE.2325; NBS 96-well plates", "result": 16, "unit": "µg/mL"}, {"measurement": "Minimum inhibitory concentration (MIC)", "setting": "PAE.2325; PS 96-well plates", "result": 64, "unit": "µg/mL"}, {"measurement": "Minimum inhibitory concentration (MIC)", "setting": "PAE.2281; NBS 96-well plates", "result": "32 to 64", "unit": "µg/mL"}, {"measurement": "Minimum inhibitory concentration (MIC)", "setting": "PAE.2281; PS 96-well plates", "result": 64, "unit": "µg/mL"}, {"measurement": "Minimum inhibitory concentration (MIC)", "setting": "PAE.999; NBS 96-well plates", "result": 8, "unit": "µg/mL"}, {"measurement": "Minimum inhibitory concentration (MIC)", "setting": "PAE.999; PS 96-well plates", "result": 64, "unit": "µg/mL"}, {"measurement": "Minimum inhibitory concentration (MIC)", "setting": "KPN.674; NBS 96-well plates", "result": 8, "unit": "µg/mL"}, {"measurement": "Minimum inhibitory concentration (MIC)", "setting": "KPN.674; PS 96-well plates", "result": 32, "unit": "µg/mL"}, {"measurement": "Minimum inhibitory concentration (MIC)", "setting": "PMB-S, KPN.2461; KPN.2461 (PMB-S), NBS 96-well plates", "result": 4, "unit": "µg/mL"}, {"measurement": "Minimum inhibitory concentration (MIC)", "setting": "PMB-S, KPN.2461; KPN.2461, PS 96-well plates", "result": 32, "unit": "µg/mL"}, {"measurement": "Minimum inhibitory concentration (MIC)", "setting": "KPN.2317; NBS 96-well plates", "result": 64, "unit": "µg/mL"}, {"measurement": "Minimum inhibitory concentration (MIC)", "setting": "KPN.2317; PS 96-well plates", "result": 64, "unit": "µg/mL"}, {"measurement": "Minimum inhibitory concentration (MIC)", "setting": "PMB-R, KPN.2463; KPN.2463 (PMB-R), NBS 96-well plates", "result": 8, "unit": "µg/mL"}, {"measurement": "Minimum inhibitory concentration (MIC)", "setting": "PMB-R, KPN.2463; KPN.2463, PS 96-well plates", "result": 32, "unit": "µg/mL"}, {"measurement": "Antimicrobial activity (AU/ml)", "setting": "[1]", "result": 1600, "unit": "AU/ml"}, {"measurement": "Antimicrobial activity (AU/ml)", "setting": "E. coli O157:H7 EDL 933", "result": 1600, "unit": "AU/ml"}, {"measurement": "Antimicrobial activity (AU/ml)", "setting": "[2]", "result": 1600, "unit": "AU/ml"}, {"measurement": "Minimum inhibitory concentration (MIC)", "setting": "MSSA ATCC 29213 SAU.42", "result": 32, "unit": "µg/mL"}, {"measurement": "Minimum inhibitory concentration (MIC)", "setting": "MRSA ATCC 43300 SAU.399", "result": 32, "unit": "µg/mL"}, {"measurement": "MIC", "setting": "[3]", "result": 8, "unit": "µg/mL"}, {"measurement": "MIC", "setting": "[4]", "result": 8, "unit": "µg/mL"}, {"measurement": "MIC", "setting": "[5]", "result": 2, "unit": "µg/mL"}, {"measurement": "MIC", "setting": "[6]", "result": 8, "unit": "µg/mL"}]}
